# In US12685735B2 (Foghorn Therapeutics Inc., priority 2020, dated 2026):
# Read-outs that look alike come from different tables or passages of the source.
# Columns and labels:
# BRM = BRM (Homo sapiens, UniProt P51531); experiment: ATPase catalytic activity assay of BRM (ADP-Glo); format: biochemical; details: for IC50: read-out: BRM IC50 (μM)*
# Procedure, shortened: (§1)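 Luminescent ADP-Glo readout of ADP generated by ATP hydrolysis. Post-reaction: ATP depletion reagent, RT 40 min; detection reagent converting ADP→ATP, RT 60 min; luminescence read.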
# BRG-1 = BRG-1 (Homo sapiens, UniProt P51532); experiment: ATPase catalytic activity assay of BRG-1 (ADP-Glo); format: biochemical; details: ATPase catalytic activity, ADP-Glo; for IC50: read-out: BRG1 IC50 (μM)*; for Emax: read-out: BRG1 Max % Inhibition
# Procedure, shortened: as §1
# Sequence of BRM (P51531 whole entry): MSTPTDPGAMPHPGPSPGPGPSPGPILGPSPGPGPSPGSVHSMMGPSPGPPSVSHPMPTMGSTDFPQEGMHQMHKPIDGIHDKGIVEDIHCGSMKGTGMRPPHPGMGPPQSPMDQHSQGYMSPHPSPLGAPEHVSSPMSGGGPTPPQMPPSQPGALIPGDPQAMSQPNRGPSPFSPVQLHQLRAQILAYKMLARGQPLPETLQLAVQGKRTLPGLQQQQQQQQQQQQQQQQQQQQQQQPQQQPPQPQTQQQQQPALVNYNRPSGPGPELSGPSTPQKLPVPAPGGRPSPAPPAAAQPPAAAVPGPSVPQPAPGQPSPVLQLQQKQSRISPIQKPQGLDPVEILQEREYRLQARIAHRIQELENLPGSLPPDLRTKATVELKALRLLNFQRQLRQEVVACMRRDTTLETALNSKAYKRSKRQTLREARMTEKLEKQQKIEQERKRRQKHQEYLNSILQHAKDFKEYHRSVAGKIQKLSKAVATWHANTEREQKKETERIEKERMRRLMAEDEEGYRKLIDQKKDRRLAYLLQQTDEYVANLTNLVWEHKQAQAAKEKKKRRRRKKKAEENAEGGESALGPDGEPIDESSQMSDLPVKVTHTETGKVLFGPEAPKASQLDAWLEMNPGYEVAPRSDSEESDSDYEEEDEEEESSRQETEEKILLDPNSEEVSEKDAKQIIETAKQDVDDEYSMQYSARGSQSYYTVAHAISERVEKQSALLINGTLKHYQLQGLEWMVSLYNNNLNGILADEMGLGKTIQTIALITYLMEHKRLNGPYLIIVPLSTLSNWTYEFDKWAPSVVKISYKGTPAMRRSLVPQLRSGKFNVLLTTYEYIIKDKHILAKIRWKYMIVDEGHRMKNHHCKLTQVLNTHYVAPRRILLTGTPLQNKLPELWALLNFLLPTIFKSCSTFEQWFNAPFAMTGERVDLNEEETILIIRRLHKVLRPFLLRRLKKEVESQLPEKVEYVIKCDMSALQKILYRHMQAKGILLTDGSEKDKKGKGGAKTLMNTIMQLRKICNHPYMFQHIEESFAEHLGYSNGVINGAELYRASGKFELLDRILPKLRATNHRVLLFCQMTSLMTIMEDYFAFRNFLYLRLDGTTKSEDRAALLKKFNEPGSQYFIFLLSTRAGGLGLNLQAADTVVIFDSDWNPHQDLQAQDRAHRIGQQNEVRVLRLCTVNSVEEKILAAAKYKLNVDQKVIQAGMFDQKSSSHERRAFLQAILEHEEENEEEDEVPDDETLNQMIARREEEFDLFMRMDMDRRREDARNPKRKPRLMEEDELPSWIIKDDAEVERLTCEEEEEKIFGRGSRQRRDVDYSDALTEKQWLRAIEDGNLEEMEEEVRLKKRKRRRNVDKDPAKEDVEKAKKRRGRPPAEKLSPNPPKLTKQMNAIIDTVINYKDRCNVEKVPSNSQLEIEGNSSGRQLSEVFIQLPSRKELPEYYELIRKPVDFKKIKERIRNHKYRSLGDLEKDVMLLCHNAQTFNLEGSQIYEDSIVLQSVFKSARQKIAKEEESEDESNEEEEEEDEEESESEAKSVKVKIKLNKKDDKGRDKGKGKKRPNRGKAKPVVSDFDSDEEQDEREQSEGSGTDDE
# Sequence of BRG-1 (P51532 whole entry): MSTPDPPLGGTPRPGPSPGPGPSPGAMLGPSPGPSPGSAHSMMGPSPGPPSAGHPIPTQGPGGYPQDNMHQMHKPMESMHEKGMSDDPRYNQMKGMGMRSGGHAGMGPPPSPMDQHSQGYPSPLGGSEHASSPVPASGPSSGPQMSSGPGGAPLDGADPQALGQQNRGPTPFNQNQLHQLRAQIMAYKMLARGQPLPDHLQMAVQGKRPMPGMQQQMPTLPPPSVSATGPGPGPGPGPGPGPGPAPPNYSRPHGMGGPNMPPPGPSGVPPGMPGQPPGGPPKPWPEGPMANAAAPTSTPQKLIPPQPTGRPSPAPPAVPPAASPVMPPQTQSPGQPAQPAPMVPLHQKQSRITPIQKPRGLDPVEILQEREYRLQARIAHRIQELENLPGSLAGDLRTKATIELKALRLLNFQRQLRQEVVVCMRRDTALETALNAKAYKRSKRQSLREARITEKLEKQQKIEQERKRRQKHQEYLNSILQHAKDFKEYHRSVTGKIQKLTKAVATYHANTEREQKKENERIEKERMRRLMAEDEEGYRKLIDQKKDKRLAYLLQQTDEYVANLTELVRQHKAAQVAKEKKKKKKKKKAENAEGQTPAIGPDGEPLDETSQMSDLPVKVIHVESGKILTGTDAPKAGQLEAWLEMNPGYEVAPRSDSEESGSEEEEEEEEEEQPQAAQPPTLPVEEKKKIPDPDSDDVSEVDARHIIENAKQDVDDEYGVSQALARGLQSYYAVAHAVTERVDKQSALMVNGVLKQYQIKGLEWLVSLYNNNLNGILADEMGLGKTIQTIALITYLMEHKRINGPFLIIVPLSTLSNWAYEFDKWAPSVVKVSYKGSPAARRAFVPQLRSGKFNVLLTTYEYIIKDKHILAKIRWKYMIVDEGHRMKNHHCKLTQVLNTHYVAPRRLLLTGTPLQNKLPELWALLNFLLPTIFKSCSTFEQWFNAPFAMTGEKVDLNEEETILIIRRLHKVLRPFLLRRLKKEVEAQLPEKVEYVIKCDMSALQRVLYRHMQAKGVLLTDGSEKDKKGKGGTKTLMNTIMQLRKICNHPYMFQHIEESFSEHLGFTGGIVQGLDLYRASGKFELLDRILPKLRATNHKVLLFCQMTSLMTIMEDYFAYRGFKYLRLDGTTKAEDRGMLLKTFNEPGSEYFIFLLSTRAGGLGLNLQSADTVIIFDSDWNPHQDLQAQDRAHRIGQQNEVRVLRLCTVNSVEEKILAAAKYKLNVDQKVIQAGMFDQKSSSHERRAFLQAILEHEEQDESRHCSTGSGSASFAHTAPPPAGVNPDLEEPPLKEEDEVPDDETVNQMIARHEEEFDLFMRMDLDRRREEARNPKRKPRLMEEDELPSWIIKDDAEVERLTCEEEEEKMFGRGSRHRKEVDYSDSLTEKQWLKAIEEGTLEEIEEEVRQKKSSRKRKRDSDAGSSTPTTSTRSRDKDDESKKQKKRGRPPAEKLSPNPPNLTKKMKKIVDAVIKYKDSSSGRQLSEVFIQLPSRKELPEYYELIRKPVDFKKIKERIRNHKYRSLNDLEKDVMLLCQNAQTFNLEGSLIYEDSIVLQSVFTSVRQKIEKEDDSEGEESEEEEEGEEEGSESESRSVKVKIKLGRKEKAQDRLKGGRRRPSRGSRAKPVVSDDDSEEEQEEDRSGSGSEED
Compound,BRM Max % Inhibition (BRM) [%],IC50 (BRM) [µM],IC50 (BRG-1) [µM],Emax (BRG-1) [%],"BRM Max % Inhibition (BRM; 30 nM BRM, 400 μM ATP) [%]","IC50 (BRM; 30 nM BRM, 400 μM ATP) [µM]","IC50 (BRG-1; 30 nM BRG-1, 400 μM ATP) [µM]","Emax (BRG-1; 30 nM BRG-1, 400 μM ATP) [%]"
"C[C@@H]1CN(c2cccc(-c3csc(NC(=O)CNC(=O)c4ccc5c(c4)[C@@](C)(C#N)CN5C)n3)c2)C[C@H](C)O1 [Compound 368, (R)-3-cyano-N-(2-((4-(3-((cis)-2,6-dimethylmorpholino)phenyl)thiazol-2-yl)amino)-2-oxoethyl)-1,3-dimethylindoline-5-carboxamide]",>85,0.1 to 1,1 to 5,> 85,–,–,–,–
"C[C@@H]1CN(c2cccc(-c3csc(NC(=O)CNC(=O)c4cccc([C@@]5(C(F)F)CCOC5)c4)n3)c2)C[C@H](C)O1 [Compound 286, 3-((S)-3-(difluoromethyl)tetrahydrofuran-3-yl)-N-(2-((4-(3-((cis)-2,6-dimethylmorpholino)phenyl)thiazol-2-yl)amino)-2-oxoethyl)benzamide]",>95,< 0.1,1 to 5,> 95,–,–,–,–
Cc1cc(-c2cccc(-c3csc(NC(=O)CNC(=O)c4cccc(C(C)(C)CO)c4)n3)c2)nc(C)n1 [Compound 93],>95,< 0.1,0.1 to 1,> 90,–,–,–,–
"C[C@@H]1CN(c2cccc(-c3csc(NC(=O)CNC(=O)c4ccc5c(c4)C4(CCCC4=O)CC5)n3)c2)C[C@H](C)O1 (stereo partly drawn) [Compound 195, N-(2-((4-(3-((cis)-2,6-dimethylmorpholino)phenyl)thiazol-2-yl)amino)-2-oxoethyl)-2-oxo-2′,3′-dihydrospiro[cyclopentane-1,1′-indene]-6′-carboxamide]",>95,0.1 to 1,1 to 5,> 70,–,–,–,–
"C[C@@H]1CN(c2cccc(-c3csc(NC(=O)CNC(=O)c4ccc5c(c4)[C@](F)(C(F)F)CCO5)n3)c2)C[C@H](C)O1 [Compound 274, (S)-4-(difluoromethyl)-N-(2-((4-(3-((cis)-2,6-dimethylmorpholino)phenyl)thiazol-2-yl)amino)-2-oxoethyl)-4-fluorochromane-6-carboxamide]",>95,< 0.1,< 0.1,> 95,–,–,–,–
"C[C@@H]1CN(c2cc(-c3csc(NC(=O)CNC(=O)c4ccc5c(c4)[C@](C)(C#N)COC5)n3)ccn2)C[C@H](C)O1 [Compound 347, (R)-4-cyano-N-(2-((4-(2-((cis)-2,6-dimethylmorpholino)pyridin-4-yl)thiazol-2-yl)amino)-2-oxoethyl)-4-methylisochromane-6-carboxamide]",>95,< 0.1,< 0.1,> 95,–,–,–,–
"CC(C)S(=O)(=O)c1cccc(C(=O)NCC(=O)Nc2nc(-c3cc(C#N)cc(-c4ccc(CN)cc4)c3)cs2)c1 [Compound 33, N-[2-[[4-[3-[4-(aminomethyl)phenyl]-5-cyano-phenyl]thiazol-2-yl]amino]-2-oxo-ethyl]-3-isopropylsulfonyl-benzamide]",>70,> 5,> 5,> 80,–,–,–,–
"CC(C)S(=O)(=O)c1cccc(C(=O)NCC(=O)Nc2nc(-c3cccc(N4CCOCC4)c3)cs2)c1 [Compound 126, 3-isopropylsulfonyl-N-[2-[[4-(3-morpholinophenyl)thiazol-2-yl]amino]-2-oxoethyl]benzamide]",>80,0.1 to 1,1 to 5,> 60,–,–,–,–
"C[C@@H]1CN(c2cccc(-c3csc(NC(=O)CNC(=O)c4ccc5c(c4)C(F)(C(F)F)COC5)n3)c2)C[C@H](C)O1 (stereo in doubt) [Compound 307, (R)-4-(difluoromethyl)-N-(2-((4-(3-((cis)-2,6-dimethylmorpholino)phenyl)thiazol-2-yl)amino)-2-oxoethyl)-4-fluoroisochromane-6-carboxamide]",>95,< 0.1,< 0.1,> 95,–,–,–,–
"C[C@@H]1CN(c2cccc(-c3csc(NC(=O)CNC(=O)c4ccc5c(c4)C(C)(CO)COC5)n3)c2)C[C@H](C)O1 (stereo in doubt) [Compound 372, (R)-N-(2-((4-(3-((cis)-2,6-dimethylmorpholino)phenyl)thiazol-2-yl)amino)-2-oxoethyl)-4-(hydroxymethyl)-4-methylisochromane-6-carboxamide]",>95,< 0.1,0.1 to 1,> 95,–,–,–,–
"CC(C)S(=O)(=O)c1cc(CO)cc(C(=O)NCC(=O)Nc2nc(-c3cccc(-c4ccncc4)c3)cs2)c1 [Compound 15, 3-(hydroxymethyl)-5-(isopropylsulfonyl)-N-(2-oxo-2-((4-(3-(pyridin-4-yl)phenyl)thiazol-2-yl)amino)ethyl)benzamide]",>50,1 to 5,> 5,> 40,–,–,–,–
"CC(C)(CN)c1cccc(C(=O)NCC(=O)Nc2nc(-c3cccc(-c4cc(Cl)cc(Cl)c4)c3)cs2)c1 [Compound 51, 3-(1-amino-2-methylpropan-2-yl)-N-(2-((4-(3′,5′-dichloro-[1,1′-biphenyl]-3-yl)thiazol-2-yl)amino)-2-oxoethyl)benzamide]",>80,0.1 to 1,> 5,> 50,–,–,–,–
"CC(C)S(=O)(=O)c1cccc(C(=O)NCC(=O)Nc2nc(-c3cccc(-c4cccc(CN)c4)c3)cs2)c1 [Compound 31, N-(2-((4-(3′-(aminomethyl)-[1,1′-biphenyl]-3-yl)thiazol-2-yl)amino)-2-oxoethyl)-3-(isopropylsulfonyl)benzamide]",>90,0.1 to 1,1 to 5,> 70,–,–,–,–
CC(C(F)(F)F)S(=O)(=O)c1cccc(C(=O)NCC(=O)Nc2nc(-c3cccc(-c4ccncc4)c3)cs2)c1 (centres unmarked) [Compound 112],>80,0.1 to 1,0.1 to 1,> 50,–,–,–,–
"COC[C@H](NC(=O)c1ccnc(C(C)(C)C)c1)C(=O)Nc1nc(-c2cccc(N3C[C@@H](C)O[C@@H](C)C3)c2)cs1 [Compound 436, 2-(tert-butyl)-N-((S)-1-((4-(3-((cis)-2,6-dimethylmorpholino)phenyl)thiazol-2-yl)amino)-3-methoxy-1-oxopropan-2-yl)isonicotinamide]",–,–,–,–,>90,0.1 to 1,1 to 5,> 90
CC1(CN)CCc2ccc(C(=O)NCC(=O)Nc3nc(-c4cccc(-c5ccncc5)c4)cs3)cc21 (centres unmarked) [Compound 101],>90,0.1 to 1,1 to 5,> 70,–,–,–,–
"C[C@@]1(F)COCc2ccc(C(=O)NCC(=O)Nc3nc(-c4ccnc(C5(O)CC5)c4)cs3)cc21 [Compound 330, (S)-4-fluoro-N-(2-((4-(2-(1-hydroxycyclopropyl)pyridin-4-yl)thiazol-2-yl)amino)-2-oxoethyl)-4-methylisochromane-6-carboxamide]",>95,< 0.1,0.1 to 1,> 95,–,–,–,–
"C[C@@H]1CN(c2cccc(-c3csc(NC(=O)[C@H](C)NC(=O)c4ccnc(C(C)(C)C)c4)n3)c2)C[C@H](C)O1 [Compound 435, 2-(tert-butyl)-N-((S)-1-((4-(3-((cis)-2,6-dimethylmorpholino)phenyl)thiazol-2-yl)amino)-1-oxopropan-2-yl)isonicotinamide]",–,–,–,–,>95,0.1 to 1,1 to 5,> 95
"C[C@@H]1CN(c2cccc(-c3csc(NC(=O)CNC(=O)c4cccc([C@H]5COC[C@H]5O)c4)n3)c2)C[C@H](C)O1 (relative stereo) [Compound 424, N-(2-((4-(3-((cis)-2,6-dimethylmorpholino)phenyl)thiazol-2-yl)amino)-2-oxoethyl)-3-((cis)-4-hydroxytetrahydrofuran-3-yl)benzamide]",–,–,–,–,>80,0.1 to 1,> 5,> 80
"CN1C(=O)CCc2ccc(-c3csc(NC(=O)CNC(=O)c4ccc5c(c4)[C@](C)(CO)CC5)n3)cc21 [Compound 180, (R)-3-(hydroxymethyl)-3-methyl-N-(2-((4-(1-methyl-2-oxo-1,2,3,4-tetrahydroquinolin-7-yl)thiazol-2-yl)amino)-2-oxoethyl)-2,3-dihydro-1H-indene-5-carboxamide]",>90,0.1 to 1,1 to 5,> 60,–,–,–,–
"CC(C)(CN)c1cccc(C(=O)NCC(=O)Nc2nc(-c3cccc(-c4cc(CO)cc(C(F)(F)F)c4)c3)cs2)c1 [Compound 53, 3-(1-amino-2-methylpropan-2-yl)-N-(2-((4-(3′-(hydroxymethyl)-5′-(trifluoromethyl)-[1,1′-biphenyl]-3-yl)thiazol-2-yl)amino)-2-oxoethyl)benzamide]",>90,0.1 to 1,1 to 5,> 70,–,–,–,–
"Cc1cncc(-c2cccc(-c3csc(NC(=O)CNC(=O)c4ccc5c(c4)[C@](C)(CO)CC5)n3)n2)n1 [Compound 163, (R)-3-(hydroxymethyl)-3-methyl-N-(2-((4-(6-(6-methylpyrazin-2-yl)pyridin-2-yl)thiazol-2-yl)amino)-2-oxoethyl)-2,3-dihydro-1H-indene-5-carboxamide]",>90,< 0.1,1 to 5,> 40,–,–,–,–
"C[C@@H]1CN(c2cccc(-c3csc(NC(=O)CNC(=O)c4cccc([C@]5(C(F)F)CCCO5)c4)n3)c2)C[C@H](C)O1 [Compound 291, 3-((S)-2-(difluoromethyl)tetrahydrofuran-2-yl)-N-(2-((4-(3-((cis)-2,6-dimethylmorpholino)phenyl)thiazol-2-yl)amino)-2-oxoethyl)benzamide]",>90,0.1 to 1,> 5,> 90,–,–,–,–
